Holding throughout (type): in vivo
Assay [1] deals with Beet Armyworm (Spodoptera exigua). The experiment in a line: Bioassay on Beet Armyworm (BAW), 128-well diet tray assay. The following applies: Beet Armyworm, Table ABC, read-out: BAW rating. An outline of the steps:
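Second-instar larvae (one to five per well) placed on artificial diet surface-treated with 50 μg/cm^2 test molecule in 90:10 acetone-water, dried, eight wells per molecule. Held at 25° C, 14:10 light-dark, five to seven days; percent mortality recorded per well and averaged across the eight wells.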

In assay [2] the test system is Cabbage Looper (Trichoplusia ni). Description: Bioassay on Cabbage Looper (CL), 128-well diet tray assay. The following applies: Cabbage Looper, Table ABC, read-out: CL rating. The gist of the method: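 Second-instar larvae, one to five per well, placed on artificial diet surface-treated with 50 μg/cm^2 compound in acetone-water, eight wells per compound. Held 5-7 days at 25° C, 14:10 light-dark; percent mortality per well averaged across wells.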

Assay [3] has as its system Yellow Fever Mosquito (Aedes aegypti). The experiment in a line: Bioassay on Yellow Fever Mosquito (YFM) larvae, 96-well plate. The following applies: Table ABC. The gist of the method: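 About 1-day-old larvae in water with liver powder were added to wells holding compound from a 4000 ppm DMSO master diluted in 90:10 water:acetone. Plates covered and kept at room temperature for 3 days, then each well scored for mortality on a rating scale.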

With `Cc1cc(C(/C=C(\F)c2ccc(C(=O)NC3(C(=O)NCC(F)(F)F)CC3)c(C(F)(F)F)c2)C(F)(F)F)cc(Cl)c1Cl` (stereo not drawn) [PF15], the pest or weed control at 50 µg/cm2 in assay [1] and in assay [2] was 50 to 100% each time. Further, in assay [3], the YFM rating result is listed as “B (More than 0-Less than 80)”.

`CN(CC(F)(F)F)C(=O)CNC(=O)c1ccc(/C(F)=C/C(c2ccc(Cl)c(F)c2)C(F)(F)F)cc1C(F)(F)F` (stereo not drawn) [PF18, (Z)-4-(3-(4-Chloro-3-fluorophenyl)-1,4,4,4-tetrafluorobut-1-en-1-yl)-N-(2-(methyl(2,2,2-trifluoroethyl)amino)-2-oxoethyl)-2-(trifluoromethyl)benzamide]: the pest or weed control at 50 µg/cm2 in assay [1] and in assay [2] was 50 to 100% each time. In addition, the YFM rating entry in assay [3] was “B (More than 0-Less than 80)”.

With `C[C@@H](NC(=O)c1ccc(/C(F)=C/C(c2ccc(Cl)c(F)c2)C(F)(F)F)cc1C(F)(F)F)C(=O)NCC(F)(F)F` (stereo partly drawn) [PF19, 4-((Z)-3-(4-Chloro-3-fluorophenyl)-1,4,4,4-tetrafluorobut-1-en-1-yl)-N—((R)-1-oxo-1-((2,2,2-trifluoroethyl)amino)propan-2-yl)-2-(trifluoromethyl)benzamide], the pest or weed control at 50 µg/cm2 in assay [1] and in assay [2] was 50 to 100% in each case. Besides, the YFM rating entry in assay [3] was “B (More than 0-Less than 80)”.

Turning to `C[C@@H](NC(=O)c1ccc(/C(F)=C/C(c2ccc(Cl)c(F)c2)C(F)(F)F)cc1C(F)(F)F)C(=O)N(C)CC(F)(F)F` (stereo partly drawn) [PF20, 4-((Z)-3-(4-Chloro-3-fluorophenyl)-1,4,4,4-tetrafluorobut-1-en-1-yl)-N—((R)-1-(methyl(2,2,2-trifluoroethyl)amino)-1-oxopropan-2-yl)-2-(trifluoromethyl)benzamide], the pest or weed control at 50 µg/cm2 in assay [1] and in assay [2] was 50 to 100% in each case. Besides, the YFM rating entry in assay [3] was “B (More than 0-Less than 80)”.

Take `CN(CC(F)(F)F)C(=O)C1(NC(=O)c2ccc(/C(F)=C/C(c3ccc(Cl)c(F)c3)C(F)(F)F)cc2C(F)(F)F)CC1` (stereo not drawn) [PF22, (Z)-4-(3-(4-Chloro-3-fluorophenyl)-1,4,4,4-tetrafluorobut-1-en-1-yl)-N-(1-(methyl(2,2,2-trifluoroethyl)carbamoyl)cyclopropyl)-2-(trifluoromethyl)benzamide]: the pest or weed control at 50 µg/cm2 in assay [1] and in assay [2] was 50 to 100% each time. Also, the YFM rating entry in assay [3] was “B (More than 0-Less than 80)”.

Regarding `C[C@@H](NC(=O)c1ccc(/C(F)=C/C(c2ccc(Br)c(Cl)c2)C(F)(F)F)cc1C(F)(F)F)C(=O)NCC(F)(F)F` (stereo partly drawn) [PF25], the pest or weed control at 50 µg/cm2 in assay [1] and in assay [2] was 50 to 100% in each case. Further, in assay [3], the YFM rating entry was “B (More than 0-Less than 80)”.

For `C[C@@H](NC(=O)c1ccc(/C(F)=C/C(c2cc(Cl)cc(Br)c2)C(F)(F)F)cc1C(F)(F)F)C(=O)N(C)CC(F)(F)F` (stereo partly drawn) [PF31, 4-((Z)-3-(3-Bromo-5-chlorophenyl)-1,4,4,4-tetrafluorobut-1-en-1-yl)-N—((R)-1-(methyl(2,2,2-trifluoroethyl)amino)-1-oxopropan-2-yl)-2-(trifluoromethyl)benzamide], the pest or weed control at 50 µg/cm2 in assay [1] and in assay [2] was 50 to 100% throughout. Moreover, the YFM rating result in assay [3] was “B (More than 0-Less than 80)”.

As for `CN(CC(F)(F)F)C(=O)C1(NC(=O)c2ccc(/C(F)=C/C(c3cc(Cl)cc(Br)c3)C(F)(F)F)cc2C(F)(F)F)CC1` (stereo not drawn) [PF33, (Z)-4-(3-(3-Bromo-5-chlorophenyl)-1,4,4,4-tetrafluorobut-1-en-1-yl)-N-(1-(methyl(2,2,2-trifluoroethyl)carbamoyl)cyclopropyl)-2-(trifluoromethyl)benzamide], the pest or weed control at 50 µg/cm2 in assay [1] and in assay [2] was 50 to 100% throughout. Further, the YFM rating result in assay [3] is given as “B (More than 0-Less than 80)”.

With `CN(CC(F)(F)F)C(=O)CNC(=O)c1ccc(/C(F)=C/C(c2ccc(Cl)c(Br)c2)C(F)(F)F)cc1C(F)(F)F` (stereo not drawn) [PF35, (Z)-4-(3-(3-Bromo-4-chlorophenyl)-1,4,4,4-tetrafluorobut-1-en-1-yl)-N-(2-(methyl(2,2,2-trifluoroethyl)amino)-2-oxoethyl)-2-(trifluoromethyl)benzamide], the pest or weed control at 50 µg/cm2 in assay [1] and in assay [2] was 50 to 100% in each case. Also, the YFM rating result in assay [3] is recorded as “B (More than 0-Less than 80)”.

Regarding `C[C@@H](NC(=O)c1ccc(/C(F)=C/C(c2ccc(Cl)c(Br)c2)C(F)(F)F)cc1C(F)(F)F)C(=O)N(C)CC(F)(F)F` (stereo partly drawn) [PF37, 4-((Z)-3-(3-Bromo-4-chlorophenyl)-1,4,4,4-tetrafluorobut-1-en-1-yl)-N—((R)-1-(methyl(2,2,2-trifluoroethyl)amino)-1-oxopropan-2-yl)-2-(trifluoromethyl)benzamide], the pest or weed control at 50 µg/cm2 in assay [1] and in assay [2] was 50 to 100% each time. In assay [3], the YFM rating result is given as “B (More than 0-Less than 80)”.

Take `CN(CC(F)(F)F)C(=O)C1(NC(=O)c2ccc(/C(F)=C/C(c3ccc(Cl)c(Br)c3)C(F)(F)F)cc2C(F)(F)F)CC1` (stereo not drawn) [PF39, (Z)-4-(3-(3-Bromo-4-chlorophenyl)-1,4,4,4-tetrafluorobut-1-en-1-yl)-N-(1-(methyl(2,2,2-trifluoroethyl)carbamoyl)cyclopropyl)-2-(trifluoromethyl)benzamide]: the pest or weed control at 50 µg/cm2 in assay [1] and in assay [2] was 50 to 100% each time. Also, in assay [3], the YFM rating entry was “B (More than 0-Less than 80)”.

Take `O=C(CNC(=S)c1ccc(/C(F)=C/C(c2cc(Cl)c(Cl)c(Cl)c2)C(F)(F)F)cc1C(F)(F)F)NCC(F)(F)F` (stereo not drawn) [PF82, (Z)-2-(4-(1,4,4,4-tetrafluoro-3-(3,4,5-trichlorophenyl)but-1-en-1-yl)-2-(trifluoromethyl)phenylthioamido)-N-(2,2,2-trifluoroethyl)acetamide]: the pest or weed control at 50 µg/cm2 in assay [1] and in assay [2] was 50 to 100% throughout. The YFM rating result in assay [3] is “A (80-100)”.

As for `O=C(NCC(=S)NCC(F)(F)F)c1ccc(/C(F)=C/C(c2cc(Cl)c(Cl)c(Cl)c2)C(F)(F)F)cc1C(F)(F)F` (stereo not drawn) [PF94, (Z)-4-(1,4,4,4-tetrafluoro-3-(3,4,5-trichlorophenyl)but-1-en-1-yl)-N-(2-thioxo-2-((2,2,2-trifluoroethyl)amino)ethyl)-2-(trifluoromethyl)benzamide], the pest or weed control at 50 µg/cm2 in assay [1] and in assay [2] was 50 to 100% in each case. Besides, the YFM rating entry in assay [3] is “A (80-100)”.

Values taken from US10251394B2, “Molecules having pesticidal utility, and intermediates, compositions, and processes, related thereto” (Dow AgroSciences LLC, priority 2016, dated 2019).
